Where two headings read alike, the source gives them in different places. One block for each molecule: values may come before it.
Key:
[1] = test system: SW1222 cells; assay: CellTiter-Glo ATP cell viability/proliferation, SW1222; format: cell-based, human
Method: (§1) SW1222 were cultured in DMEM (Gibco, New York, NY, USA) media supplemented with 10% fetal bovine serum (FBS) (Gibco, New York, NY, USA) and 1% penicillin/streptomycin (Gibco, USA). Both K562 and K562/Adr200 were cultured in RPMI media (Gibco, New York, NY, USA) supplemented with 10% FBS and 1% penicillin/streptomycin. The seeding density for all the three cell lines was 1000 cells per well in 96 wells plates. […] From this experiment, the effective concentration that inhibited the growth of ≥50% of the cells was determined. […] Both metformin and copper sulfate were prepared in sterile nuclease-free water, then added to the media. The cells were maintained in culture for 72 h before any further assessments were done. […] A control sample of untreated cells was included in all experiments. […] The CellTiter-Glo® luminescent cell viability assay was used to determine levels of ATP release from each cell line after 72 h, according to manufacturer’s instructions.

[2] = test system: K562 cells; assay: CellTiter-Glo ATP cell viability/proliferation, K562; format: cell-based, human; settings: for Normalized ATP percentage / IC50: 72 h; for IC50: Homo sapiens, K562, 72 h, K562, ATP release
Method: as §1

[3] = test system: K562-200 (K562/Adr200) cells; assay: CellTiter-Glo ATP cell viability/proliferation, K562-200; format: cell-based, human; settings: for IC50: K562-200, ATP release, 72 h
Method: as §1

[4] = set-up: method as in PMID 21168988; settings: NMR, literature data ref 39; cited from earlier work
[5] = test system: normal colon CCD 841 CoN cells; settings: 10–50 mM for 48 h ref 56; cited from earlier work
[6] = potentiometry, cited from earlier work
[7] = test system: human gastric cancer AGS cells; settings: 20 mM for 12 h ref 56; cited from earlier work
[8] = test system: 293 cells; settings: 10–50 mM for 48 h ref 56; cited from earlier work
[9] = patients with diabetes, observational study published in 2005 ref 13; cited from earlier work
[10] = T2DM / diabetic patients ref 57; cited from earlier work
[11] = Cu(II)/metformin complex formation constants by combined potentiometric-Vis titration; format: physicochemical; settings: 0.1 M KCl, 25.0 °C, [L] = 4 mM, [Cu^2+] = 2 mM, potentiometry/Vis
Method: Protonation and complex-formation equilibrium studies were carried out under the same conditions described in previous publications. […]. Combined potentiometric–spectrophotometric measurements were performed for protonation equilibria in the 200–400 nm spectral range and in the 400–800 nm spectral range for copper (II) complexes, using 0.2 and 1 cm path lengths, respectively. Protonation and complex formation data were analyzed using the Hyperquad and HypSpec2014 program.

[12] = test system: SW1222 cells; assay: Actin stress fiber staining and morphology, SW1222; format: cell-based, human; settings: SW1222, 15 mM and 50 mM metformin, 72 h
Method: (§2) To assess the effects on actin stress fiber organization and cell morphology, rhodamine phalloidin was used. Cells were fixed in 4% paraformaldehyde 72 h post-treatment. Cells were permeabilized for 5 min in prechilled 0.5% Triton × 100, 3 mM MgCl2, and 300 mM sucrose, followed by washing with 1× DPBS. A blocking buffer composed of 5% fetal bovine serum (FBS), 0.1% Tween 20, and 0.02% sodium azide was then added to the cells for 30 min. Rhodamine phalloidin was incubated for one hour after removing and discarding the blocking buffer. Cells were subsequently washed with 1× PBS, and DAPI was added for nucleic acid staining prior to fluorescence imaging.

[13] = test system: K562 cells; assay: Actin stress fiber staining, K562; format: cell-based, human; settings: K562, 72 h
Method: as §2

[14] = potentiometry, cited from earlier work; remark: listed apart in the source
[15] = test system: embryonic lung HEL 299 cells; settings: 10–50 mM for 48 h ref 56; cited from earlier work
[16] = test system: K562-200 cells; assay: Actin stress fiber staining, K562-200; format: cell-based, human; settings: K562-200, 72 h
Method: as §2

SMILES: O=S(=O)([O-])[O-].[Cu+2] [Cu(II), copper (II) sulfate]
Inhibition of cell proliferation (% of the cells) ([1]; SW1222, 400 µM Cu(II), absence of metformin): ≥ 50% | Effect on cells ([1]; SW1222, 5 mM Cu(II), regardless of metformin concentration): almost all cells died | Inhibition of cell proliferation (% of the cells) ([2]; K562, 400 µM Cu(II), absence of metformin): ≥ 50% | Normalized ATP percentage ([2]; K562, 400 µM Cu(II), no metformin): 47.2% | Effect on cells ([2]; K562, 5 mM Cu(II), regardless of metformin concentration): almost all cells died | Inhibition of cell proliferation (% of the cells) ([3]; K562-200, 400 µM Cu(II), absence of metformin): ≥ 50% | Effect on cells ([3]; K562-200, 5 mM Cu(II), regardless of metformin concentration): almost all cells died

IC50 ([1]; Homo sapiens, SW1222, ATP release, 72 h): 15600 µM | Logβ CuL2 [11]: 22.20(7) | Logβ CuL2H [11]: 28.3(1) | Logβ CuLH [11]: 17.87(5) | IC50 [2]: 851 µM | IC50 ([2]; as in Figure 7B legend): ~1000 µM | IC50 ([3]; Homo sapiens, K562, 72 h): 63.1 µM | IC50 [3]: 63 µM
SMILES: CN(C)C(=N)N=C(N)N [metformin, 3-(diaminomethylidene)-1,1-dimethylguanidine]
Protonation constant LH [4]: 13.8 [39] | Protonation constant LH2 [4]: 3.1 [39] | Effect on viability [5]: no significant effect | Protonation constant LH ([6]; literature data ref 37): 11.02 [37] | Protonation constant LH2 ([6]; literature data ref 37): 2.79 [37] | Protonation constant LH ([6]; literature data ref 38): 11.10 [38] | Protonation constant LH2 ([6]; literature data ref 38): 2.90 [38] | Effect on cell viability [7]: significantly reduced cell viability | Effect on viability [8]: no significant effect | Decrease in cancer risk with metformin use [9]: 23% | Plasma concentration [10]: ~20 µM | Cell shrinkage and rounding [12]: dramatically increased | Normalized ATP percentage ([2]; K562, 10 mM metformin): 35.2% | Lowest concentration showing loss of actin stress fibers [13]: 1 mM | LogK CuL ([14]; literature data ref 38): 8.59 [38] | LogK CuL2 ([14]; literature data ref 38): 6.35 [38] | LogK CuL ([14]; literature data ref 42): 7.17 [42] | LogK CuL2 ([14]; literature data ref 42): 5.13 [42] | Effect on viability [15]: no significant effect | Lowest concentration showing loss of actin stress fibers [16]: 20 µM

Reference: PMC8401132 (Molecules, 2021)
